The text below walks through data of patent US7829585B2, “Antifungal agent containing pyridine derivative” (Eisai R&D Management Co., Ltd., priority 2005, dated 2010).

The subject of assay [1] is C. albicans E81022 strain. Nature of the assay: Anti-Candida activity, MIC measurement (broth dilution, visual inspection). The settings on record: Candida albicans, E81022STRAIN, C. albicans E81022, RPMI1640, 48 hours at 35° C., read-out: Anti-Candida activity (minimum growth inhibitory concentration, MIC). Format: cell-based. The method, then: (§1) For the C. albicans E81022 strain, a fungal suspension from a standing culture 48 hours at 30° C. in a Sabouraud dextrose liquid culture medium (SDB) was diluted 10000-fold with 1.3-times concentrated RPMI1640 medium to prepare a fungal suspension containing 1 to 2×10^4 cells/ml. For the A. fumigatus Tsukuba strain, −80° C. stored strain was diluted 1000-fold with 1.3-times concentrated RPMI1640 medium to prepare a fungal suspension containing 2 to 3×10^3 cells/ml.
(§2) Using a U-shaped bottomed 96-well plates, 8 samples/plate (A to H) of sample dilution solutions were prepared. On the first row was dispensed 240 μl of sterile distilled water, and on the 2nd to 12th row were dispersed 125 μL of 4% dimethylsulfoxide solution. Weighed sample was dissolved in dimethylsulfoxide to prepare a 5 mg/ml solution followed by adding 10 μL of the solutions to the first row of the prepared plates and preparing 12-step serial 2-fold dilutions (125 μL of solution+125 μL of 4% dimethylsulfoxide solution) on the plates.
(§3) The fungal suspension prepared in (1) was used in the amount of 75 μL/well to inoculate the flat-bottomed 96-well plates containing 25 μL/well of the test compound prepared in (2), and a standing culture was carried out aerobically for 48 hours at 35° C.
Background: In broth dilution the organism is exposed to a series of concentrations in liquid medium.

Assay [2] has as its system C. albicans E81022 strain. In words: Experimental systemic Candida infection model in mice. Format: in vivo. The settings on record: female ICR mice, C. albicans E81022 i.v. 4×10^6 cells/mouse; 10 mg/kg peroral, three times every 4 hours; observed until 14 days after infection. As to the method:
A standing culture of C. albicans E81022 strain was static cultured for 48 hours at 30° C. in Sabouraud's dextrose agar (SDA), and the recovered fungal cells were suspended in sterilized physiological saline. By counting the fungal number on cytometry plate, the suspension was diluted to 2×10^7 cells/mL with sterilized saline to serve fungal inoculant.
The fungal inoculum was used in the amounts of 0.2 mL to inoculate 4.5 to 5.5 week-old femal ICR mice in the tail vein (4×10^6 cells/mouse).
From 0.5 to 1 hour after fungal inoculation, 0.2 mL of agent solution (dissolved or suspended in sterilized saline containing 6.5% dimethylsulfoxide and 3.5% Tween 80) was administered into the stomach using a peroral probe, three times every 4 hours. The agent concentration was set at 10 mg/kg and the number of animals in one group was 5 animals.
The protective effect was determined by observing life/death until 14 days after infection and calculating the mean survival days.

The subject of assay [3] is A. fumigatus Tsukuba strain. Nature of the assay: Anti-Aspergillus activity, MIC measurement (broth dilution, visual inspection). Type of assay: cell-based. The settings on record: RPMI1640, 48 hours at 35° C., read-out: Anti-Aspergillus activity (minimum growth inhibitory concentration, MIC). As to the method:
as §1, §2, §3

SMILES strings stand for the structures. Values after ≈ are worked out from the molar mass of the structure shown.

With `COCc1ccc(C(=O)NCc2cc3ccc(OCC4CC4)cc3o2)c(N)n1` [Example 6, 2-Amino-N-(6-cyclopropylmethoxy-benzofuran-2-ylmethyl)-6-methoxymethyl-nicotinamide], the values for the MIC in assay [1] and in assay [3] were 0.78 µg/mL (≈ 2.04 µM) and 1.56 µg/mL (≈ 4.09 µM), respectively. In addition, the “Mean Survival Days” value in assay [2] was 11.4 days.
On the same counts, the results for `Nc1ccc(C(=O)NCc2cc3ccc(OCc4ccccc4)cc3o2)c(N)n1` [Example 1, 2,6-Diamino-N-(6-benzyloxy-benzofuran-2-ylmethyl)-nicotinamide] are 0.39 µg/mL (≈ 1 µM), 1.56 µg/mL (≈ 4.02 µM) and 9.6 days.
The corresponding values for `CCOc1ccc2cc(CNC(=O)c3ccc(N)nc3N)oc2c1` [Example 2, 2,6-Diamino-N-(6-ethoxy-benzofuran-2-ylmethyl)-nicotinamide] are 1.56 µg/mL (≈ 4.78 µM), 3.13 µg/mL (≈ 9.59 µM) and 8.6 days.
On the same counts, the results for `COCc1ccc(C(=O)NCc2cc3ccc(OCc4ccccc4)cc3o2)c(N)n1` [Example 4, 2-Amino-N-(6-benzyloxy-benzofuran-2-ylmethyl)-6-methoxymethyl-nicotinamide] are 0.78 µg/mL (≈ 1.87 µM), 3.13 µg/mL (≈ 7.5 µM) and 10.2 days.
Turning to `C=CCOc1ccc2cc(CNC(=O)c3ccc(N)nc3N)oc2c1` [Example 9, N-(6-Allyloxy-benzofuran-2-ylmethyl)-2,6-diamino-nicotinamide], in assay [2], the “Mean Survival Days” value amounted to 9.6 days.
In the case of `Nc1ccc(C(=O)NCc2cc3ccc(OCC4CC4)cc3o2)c(N)n1` [Example 3, 2,6-Diamino-N-(6-cyclopropylmethoxy-benzofuran-2-ylmethyl)-nicotinamide], the figures for the MIC in assay [1] and in assay [3] were 1.56 µg/mL (≈ 4.43 µM) and 0.78 µg/mL (≈ 2.21 µM), respectively. For the same compound, the “Mean Survival Days” value in assay [2] was found to be 8.6 days.
The corresponding values for `COCc1ccc(C(=O)NCc2cc3cc(OCc4ccccc4)ccc3o2)c(N)n1` [Example 7, 2-Amino-N-(5-benzyloxy-benzofuran-2-ylmethyl)-6-methoxymethyl-nicotinamide] are 0.39 µg/mL (≈ 0.934 µM), 1.56 µg/mL (≈ 3.74 µM) and 8.8 days.
Turning to `C=CCOc1ccc2cc(CNC(=O)c3ccc(COC)nc3N)oc2c1` [Example 5, N-(6-Allyloxy-benzofuran-2-ylmethyl)-2-amino-6-methoxymethyl-nicotinamide], the MIC in assay [1] and in assay [3] was 0.78 µg/mL (≈ 2.12 µM) throughout. For the same compound, the “Mean Survival Days” value in assay [2] was 12.8 days.
Take `CC(C)COc1ccc2cc(CNC(=O)c3ccc(N)nc3N)oc2c1` [Example 13, 2,6-Diamino-N-(6-isobutoxy-benzofuran-2-ylmethyl)-nicotinamide]: the MIC was 0.39 µg/mL (≈ 1.1 µM) in assay [1] and 1.56 µg/mL (≈ 4.4 µM) in assay [3].
Turning to `CCCCCOc1ccc2cc(CNC(=O)c3ccc(N)nc3N)oc2c1` [Example 12, 2,6-Diamino-N-(6-pentyloxy-benzofuran-2-ylmethyl)-nicotinamide], the results for the MIC in assay [1] and in assay [3] were 0.78 µg/mL (≈ 2.12 µM) and 1.56 µg/mL (≈ 4.23 µM), respectively.
Take `Nc1ccc(C(=O)NCc2cc3ccc(OCc4ccccc4)cc3s2)c(N)n1` [Example 78, 2,6-Diamino-N-(6-benzyloxy-benzo[b]thiohen-2-ylmethyl)-nicotinamide]: the MIC is 0.39 µg/mL (≈ 0.964 µM) in assay [1] and 1.56 µg/mL (≈ 3.86 µM) in assay [3].
With `C=CCOc1ccc2oc(CNC(=O)c3ccc(COC)nc3N)cc2c1` [Example 54, N-(5-Allyloxy-benzofuran-2-ylmethyl)-2-amino-6-methoxymethyl-nicotinamide], the MIC is 1.56 µg/mL (≈ 4.25 µM) in assay [1] and 0.39 µg/mL (≈ 1.06 µM) in assay [3].
As for `C=CCOc1ccc2oc(CNC(=O)c3ccc(N)nc3N)cc2c1` [Example 52, N-(5-Allyloxy-benzofuran-2-ylmethyl)-2,6-diamino-nicotinamide], the results for the MIC in assay [1] and in assay [3] were 1.56 µg/mL (≈ 4.61 µM) and 0.78 µg/mL (≈ 2.31 µM), respectively.
On the same counts, the results for `COCCOc1ccc2cc(CNC(=O)c3ccc(COC)nc3N)oc2c1` [Example 40, 2-Amino-N-(6-(2-methoxy-ethoxy)-benzofuran-2-ylmethyl)-6-methoxymethyl-nicotinamide] are 3.13 µg/mL (≈ 8.12 µM) and 3.13 µg/mL (≈ 8.12 µM).
